# Where “and” joins values, the source holds several entries; their conditions need not be identical. Identical values can stand only once. Like-named read-outs stand apart in the source and are kept apart here.
# What was measured:
# recombinant human AChE = biological target: T1, recombinant human AChE (Homo sapiens, UniProt P22303); experiment: In vitro AChE inhibition assay with recombinant human AChE in low-protein medium; assay type: biochemical
# T1 construct: purchased Sigma-Aldrich (St. Louis, MO, USA)
# Procedure: (§1) Inhibition of rat and human erythrocyte AChE by FNT and FNO was determined using rat and human blood. Additionally, in vitro AChE inhibition assay was also performed by exposing recombinant human AChE and self-prepared rat erythrocyte AChE to FNT and FNO in a low-protein medium to investigate the potential effect induced by blood matrix. Details are provided in the Supporting Information. […]
# (§2) the remaining AChE activity in rat and human blood samples, respectively. Assays were conducted in triplicate, and the data obtained were analyzed in GraphPad Prism (version 5.04, San Diego, CA, USA) to define the concentration resulting in 50% inhibition (IC50).
# (§3) In vitro AChE inhibition assay with self-prepared rat erythrocyte AChE and recombinant human […]
# (§4) Based on the method described in Zhao et al. (2021), rat erythrocyte AChE was prepared from rat whole blood and the AChE activity was quantified (0.16 U/mL). The inhibition ability of FNT and FNO towards rhAChE and rat erythrocyte AChE was evaluated using a modified protocol (Zhao et al. 2021), and assays were conducted in triplicate. […] After 15 min incubation at 37℃, 150 µL reaction reagent (mixture of ATC at a final concentration of 150 µM and DTNB at a final concentration of 75 µM) was added, and the absorbance at 412 nm was measured continuously for 10 min at 37℃ to test the remaining AChE activity. The AChE activity was expressed as the remaining AChE activity relative to solvent control (100% activity) and positive control (0% activity) based on the equation (Eq S2): […]
# (§5) A 412(t10 - t0) Test Compoundwhere is the change of the absorbance at 412 nm between 0 min and 10 min for the test compound; similarly, A 412(t10 - t0) Positive Control is the change of the absorbance for the CPO sample, and A 412(t10 - t0) Solvent Control the change of the absorbance for the 0.2% ethanol sample. […]
# (§6) is relevant for the toxicity prediction following acute FNT exposure. The normalized sensitivity coefficients (SCs) were calculated with the equation (Eq S3)
# rat erythrocyte AChE = biological target: T2, rat erythrocyte AChE (Rattus norvegicus, UniProt P37136); experiment: In vitro AChE inhibition assay with rat blood; assay type: biochemical
# T2 construct: tissue Innovative Research Inc. (Novi, MI, USA); host or cells: rat whole blood (Sprague-Dawley), K2EDTA
# Procedure: as §1
# (§7) Calculation of kinetic parameters […]
# (§8) Protein concentration determination for rat and human plasma […]
# (§9) In vitro AChE inhibition assay with rat and human blood
# (§10) Inhibition of rat and human erythrocyte AChE by FNT and FNO was determined using the protocol from Kasteel et al. (2021). The final concentrations of FNT and FNO in rat and human blood ranged from 0.05 to 500 µM and from 0.01 to 20 µM, respectively (added from 1000 times concentrated stock solutions in ethanol). Absorbance at 436 nm was measured continuously for 60 min and 10 min to detect […]
# (§11) the remaining AChE activity in rat and human blood samples, respectively. Assays were conducted in triplicate, and the data obtained were analyzed in GraphPad Prism (version 5.04, San Diego, CA, USA) to define the concentration resulting in 50% inhibition (IC50). […]
# [1] = assumed default for neutral and acidic compounds, no experimental data; cited from earlier work
# [2] = biological target: T3, self-prepared rat erythrocyte AChE (Rattus norvegicus, UniProt P37136); experiment: In vitro AChE inhibition assay with self-prepared rat erythrocyte AChE in low-protein medium; assay type: biochemical
# T3 construct: rat erythrocyte AChE was prepared from rat whole; tissue BioIVT (West Sussex, UK); host or cells: rat whole blood (Sprague-Dawley, mixed gender, LiHep); erythrocyte AChE prepared in house
# Procedure: as §1, §2, §3, §4, §5, §6
# human erythrocyte AChE = biological target: T4, human erythrocyte AChE (Homo sapiens, UniProt P22303); experiment: In vitro AChE inhibition assay with human blood; assay type: biochemical
# T4 construct: tissue CTIBiotech (Lyon, France); host or cells: human whole peripheral blood, K2EDTA
# Procedure: as §1, §7, §8, §9, §10, §11
# erythrocyte AChE = details: rat, cited from earlier work
# T3 sequence (P37136 other isoform, or with tags, fused parts or gaps): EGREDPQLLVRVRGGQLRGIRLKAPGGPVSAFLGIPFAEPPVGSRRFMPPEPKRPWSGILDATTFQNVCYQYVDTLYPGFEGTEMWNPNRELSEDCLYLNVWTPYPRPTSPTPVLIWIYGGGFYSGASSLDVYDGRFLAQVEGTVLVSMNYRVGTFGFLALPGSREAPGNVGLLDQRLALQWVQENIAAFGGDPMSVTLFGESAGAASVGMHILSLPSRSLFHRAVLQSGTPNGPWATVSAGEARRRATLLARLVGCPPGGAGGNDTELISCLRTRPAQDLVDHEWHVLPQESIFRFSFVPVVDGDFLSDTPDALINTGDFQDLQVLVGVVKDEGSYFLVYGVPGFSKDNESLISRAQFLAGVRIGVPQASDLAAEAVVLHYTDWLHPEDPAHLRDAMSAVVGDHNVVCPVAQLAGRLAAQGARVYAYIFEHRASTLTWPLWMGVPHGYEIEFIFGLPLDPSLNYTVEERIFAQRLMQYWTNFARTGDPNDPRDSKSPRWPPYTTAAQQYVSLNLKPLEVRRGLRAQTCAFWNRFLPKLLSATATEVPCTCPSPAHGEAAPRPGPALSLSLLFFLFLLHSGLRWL
# T1 sequence (P22303 32-614): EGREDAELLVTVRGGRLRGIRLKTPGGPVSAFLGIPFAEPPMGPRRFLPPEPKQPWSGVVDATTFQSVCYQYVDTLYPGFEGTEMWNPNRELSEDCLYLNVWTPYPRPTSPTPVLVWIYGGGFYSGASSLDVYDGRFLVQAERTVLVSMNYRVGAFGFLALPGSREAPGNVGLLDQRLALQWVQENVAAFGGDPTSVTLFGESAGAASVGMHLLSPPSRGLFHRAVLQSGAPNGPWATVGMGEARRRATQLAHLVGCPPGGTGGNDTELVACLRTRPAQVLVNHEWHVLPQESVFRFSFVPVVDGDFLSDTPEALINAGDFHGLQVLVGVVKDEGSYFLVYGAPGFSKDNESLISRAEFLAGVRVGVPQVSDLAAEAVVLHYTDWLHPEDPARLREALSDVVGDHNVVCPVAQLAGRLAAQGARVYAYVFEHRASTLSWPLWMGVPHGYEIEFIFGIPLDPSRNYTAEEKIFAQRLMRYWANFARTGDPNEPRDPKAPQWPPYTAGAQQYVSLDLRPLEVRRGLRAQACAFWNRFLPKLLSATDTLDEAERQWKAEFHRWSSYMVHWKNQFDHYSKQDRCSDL
# T2 sequence (P37136 other isoform, or with tags, fused parts or gaps): as the sequence (P37136 other isoform, or with tags, fused parts or gaps) above
# T4 sequence (P22303 32-617 isoform P22303-2 limits assumed): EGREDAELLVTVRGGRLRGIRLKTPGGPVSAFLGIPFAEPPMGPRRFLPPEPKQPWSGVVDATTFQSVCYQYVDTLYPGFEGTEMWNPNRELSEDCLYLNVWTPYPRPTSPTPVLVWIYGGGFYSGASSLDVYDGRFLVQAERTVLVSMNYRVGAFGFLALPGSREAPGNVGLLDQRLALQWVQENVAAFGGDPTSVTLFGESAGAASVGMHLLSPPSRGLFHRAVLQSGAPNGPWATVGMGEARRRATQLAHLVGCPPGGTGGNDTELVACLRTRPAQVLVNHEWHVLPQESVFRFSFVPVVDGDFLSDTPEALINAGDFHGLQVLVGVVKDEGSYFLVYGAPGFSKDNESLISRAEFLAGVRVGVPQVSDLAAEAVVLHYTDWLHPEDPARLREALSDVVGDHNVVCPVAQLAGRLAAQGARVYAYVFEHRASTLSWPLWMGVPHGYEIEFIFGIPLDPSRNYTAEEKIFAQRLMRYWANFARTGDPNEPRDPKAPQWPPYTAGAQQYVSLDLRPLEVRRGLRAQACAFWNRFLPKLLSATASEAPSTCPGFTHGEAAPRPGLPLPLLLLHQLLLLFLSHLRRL
Structure (SMILES),IC50 (recombinant human AChE),IC50 fold lower with recombinant human AChE than in human blood (recombinant human AChE; ratio of IC50 in human blood to IC50 with recombinant enzyme),IC50 (rat erythrocyte AChE),blood plasma ratio (BPr) [1],IC50 [2],IC50 fold lower with self-prepared rat erythrocyte AChE than in rat blood ([2]; ratio of IC50 in rat blood to IC50 with self-prepared enzyme),IC50 (human erythrocyte AChE),"reported NOAEL (erythrocyte AChE; EFSA, 90 day rat study, body weight gain and erythrocyte and brain cholinesterase activity)","reported NOAEL (erythrocyte AChE; US EPA, erythrocyte AChE inhibition after 2 weeks of dosing in a 92 week rat study)"
"COP(=O)(OC)Oc1ccc([N+](=O)[O-])c(C)c1 [FNO, fenitrooxon]",250 nM,3.4 fold,950 nM,0.55,180 nM,5.3 fold,840 nM,–,–
"COP(=S)(OC)Oc1ccc([N+](=O)[O-])c(C)c1 [FNT, O,O-dimethyl O-4-nitro-m-tolyl phosphorothioate]",30900 nM,–,~500000 nM,0.55,8240 nM,–,> 500000 nM,1.3 mg/kg BW and 1.30 mg/kg BW,0.25 mg/kg BW

# From publication PMC10720383, “Acetylcholinesterase Inhibition in Rats and Humans Following Acute Fenitrothion Exposure Predicted by Physiologically Based Kinetic Modeling-Facilitated Quantitative In Vitro to In Vivo Extrapolation” (Environmental Science & Technology, 2023)
